From patent US20250197374A1, “WEE1 DEGRADING COMPOUNDS AND USES THEREOF” (BRISTOL-MYERS SQUIBB COMPANY, priority 2023, published 2025)
pEC50: −log10 of the molar value.

Experiments:
Type in all cases: cell-based
WEE1 = target: T1, WEE1 (Homo sapiens, UniProt P30291+Q96SW2); assay: WEE1-ePL degradation assay (293T-LentiX, InCELL Hunter luminescence, 4 hr); conditions: for DC50: LentiX-HEK293T cells expressing WEE1-ePL, 4 hr incubation, read-out: 293T-LentiX WEE1-ePL Degradation 4 hr EC50; for 293T-LentiX WEE1-ePL Degradation 4 hr YMin (%): lower limit of fit, % of DMSO control signal remaining
T1 construct: C-terminal ePL-tagged (DiscoverX, Fremont, CA) full-length WEE1 expression construct; expressed in transfected cells; host or cells: LentiX-HEK293T (Invitrogen), lentivirally transduced; the cells also over-express GSPT1-GN
T1 sequence (P30291 whole entry): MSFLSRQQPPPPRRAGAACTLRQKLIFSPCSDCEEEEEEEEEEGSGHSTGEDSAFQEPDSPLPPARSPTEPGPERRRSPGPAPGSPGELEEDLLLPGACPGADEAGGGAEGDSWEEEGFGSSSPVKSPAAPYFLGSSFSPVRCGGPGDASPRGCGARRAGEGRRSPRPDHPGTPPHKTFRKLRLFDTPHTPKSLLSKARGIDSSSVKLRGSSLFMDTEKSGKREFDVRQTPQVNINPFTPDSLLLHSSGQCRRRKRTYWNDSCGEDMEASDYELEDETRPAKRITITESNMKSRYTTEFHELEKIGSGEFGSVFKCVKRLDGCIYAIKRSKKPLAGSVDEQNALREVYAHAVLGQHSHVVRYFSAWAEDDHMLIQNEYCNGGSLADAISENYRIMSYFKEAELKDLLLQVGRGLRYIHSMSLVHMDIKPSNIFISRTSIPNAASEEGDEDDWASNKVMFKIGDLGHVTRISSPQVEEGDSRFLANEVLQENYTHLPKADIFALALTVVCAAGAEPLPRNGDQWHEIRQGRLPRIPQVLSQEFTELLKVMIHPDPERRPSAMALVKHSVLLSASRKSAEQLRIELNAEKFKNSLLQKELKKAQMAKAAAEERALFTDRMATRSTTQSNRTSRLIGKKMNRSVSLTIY
T1 sequence (Q96SW2 whole entry): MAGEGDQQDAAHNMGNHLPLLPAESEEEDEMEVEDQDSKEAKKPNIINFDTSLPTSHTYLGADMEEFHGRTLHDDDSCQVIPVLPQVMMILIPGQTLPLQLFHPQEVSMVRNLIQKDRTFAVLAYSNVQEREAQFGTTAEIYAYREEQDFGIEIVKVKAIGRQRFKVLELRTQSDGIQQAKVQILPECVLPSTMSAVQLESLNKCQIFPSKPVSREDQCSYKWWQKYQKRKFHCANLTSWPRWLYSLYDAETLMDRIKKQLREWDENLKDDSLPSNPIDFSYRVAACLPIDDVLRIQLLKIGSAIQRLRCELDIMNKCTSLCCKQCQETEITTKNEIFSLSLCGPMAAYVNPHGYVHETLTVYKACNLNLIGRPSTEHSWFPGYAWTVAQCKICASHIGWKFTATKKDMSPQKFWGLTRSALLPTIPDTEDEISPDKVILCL
T1 sequence (Q16531 whole entry partner): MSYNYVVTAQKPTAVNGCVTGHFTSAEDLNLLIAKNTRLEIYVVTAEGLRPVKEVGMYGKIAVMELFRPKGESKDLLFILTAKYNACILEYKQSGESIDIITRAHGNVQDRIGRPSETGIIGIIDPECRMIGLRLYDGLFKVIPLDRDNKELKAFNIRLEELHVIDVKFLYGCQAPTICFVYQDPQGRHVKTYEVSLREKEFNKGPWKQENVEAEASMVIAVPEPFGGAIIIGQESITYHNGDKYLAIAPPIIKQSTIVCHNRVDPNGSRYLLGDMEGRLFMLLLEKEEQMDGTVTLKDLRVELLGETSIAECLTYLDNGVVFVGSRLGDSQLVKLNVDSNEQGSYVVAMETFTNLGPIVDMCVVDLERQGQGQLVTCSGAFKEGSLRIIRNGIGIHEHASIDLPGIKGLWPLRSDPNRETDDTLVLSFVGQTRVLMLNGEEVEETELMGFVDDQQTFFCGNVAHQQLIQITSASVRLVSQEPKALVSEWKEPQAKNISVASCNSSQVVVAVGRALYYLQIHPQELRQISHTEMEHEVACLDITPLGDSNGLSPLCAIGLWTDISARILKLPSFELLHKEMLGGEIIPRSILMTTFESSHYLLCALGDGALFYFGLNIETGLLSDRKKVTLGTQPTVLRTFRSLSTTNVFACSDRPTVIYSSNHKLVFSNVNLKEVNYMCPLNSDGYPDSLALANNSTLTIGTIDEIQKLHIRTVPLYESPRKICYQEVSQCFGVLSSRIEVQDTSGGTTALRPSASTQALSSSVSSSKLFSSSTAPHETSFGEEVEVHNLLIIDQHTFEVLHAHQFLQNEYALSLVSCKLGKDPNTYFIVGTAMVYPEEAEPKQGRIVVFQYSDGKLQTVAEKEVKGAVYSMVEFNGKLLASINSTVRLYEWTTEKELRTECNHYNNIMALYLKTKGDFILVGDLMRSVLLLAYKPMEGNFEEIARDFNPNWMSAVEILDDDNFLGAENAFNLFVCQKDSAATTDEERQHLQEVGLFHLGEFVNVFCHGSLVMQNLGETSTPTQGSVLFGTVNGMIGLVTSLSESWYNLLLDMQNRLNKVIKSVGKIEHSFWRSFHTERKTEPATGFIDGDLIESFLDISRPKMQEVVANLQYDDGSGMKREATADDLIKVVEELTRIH
Method in brief: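 LentiX-HEK293T cells expressing C-terminally ePL-tagged full-length WEE1 plus non-degradable GSPT1-GN (G575N, N-terminal 158 aa truncated). Treated 4 h at 37 °C with a 10-point, 3-fold series from 1 or 10 µM, then read by InCELL Hunter luminescence. EC50 from four-parameter logistic fit, Ymax set by DMSO control.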

MKN45 cells = assay: MKN45 cell proliferation assay (Cell-Titer-Glo, 120 hr); conditions: for pEC50: Homo sapiens, MKN-45, 120 h, read-out: MKN45 Cell Prolif. 120 hr EC50; for MKN45 Cell Prolif. 120 hr YMin (%): minimal percent of DMSO control observed
Method in brief: (§1)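 MKN45 (400/well) and MDA-MB-231 (800/well) cells in RPMI with 10% FBS were exposed to 10-point half-log doses from 1 or 10 uM (0.1% DMSO) for 120 h at 37 °C. Viability was read by CellTiter-Glo luminescence. EC50 came from blank-subtracted, %DMSO four-parameter fits, with Ymin-obs as the lowest %DMSO observed.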

MDA-MB-231 cells = assay: MDA-MB-231 cell proliferation assay (Cell-Titer-Glo, 120 hr); conditions: for pEC50: Homo sapiens, MDA-MB-231, 120 h, read-out: MDA-MB 231 Cell Prolif. 120 hr EC50; for MDA-MB 231 Cell Prolif. 120 hr YMin (%): minimal percent of DMSO control observed
Method in brief: as §1

| DC50 (WEE1) [nM] | 293T-LentiX WEE1-ePL Degradation 4 hr YMin (%) (WEE1) | pEC50 (MKN45 cells) | pEC50 (MDA-MB-231 cells) | Compound | MKN45 Cell Prolif. 120 hr YMin (%) (MKN45 cells) | MDA-MB 231 Cell Prolif. 120 hr YMin (%) (MDA-MB-231 cells) |
| --- | --- | --- | --- | --- | --- | --- |
| 4 | 17.2 | 8.70 | 7.20 | COC[C@@H]1CN(Cc2cc(F)c3nc(C4CN(CC(C)(C)O)C4)ccc3c2)C[C@H]1Oc1ccc2c(c1)CN([C@H]1CCC(=O)NC1=O)C2=O [Example 120, (3S)-3-(5-{[(3S,4S)-1-({8-fluoro-2-[1-(2-hydroxy-2-methylpropyl)azetidin-3-yl]quinolin-6-yl}methyl)-4-(methoxymethyl)pyrrolidin-3-yl]oxy}-1-oxo-2,3-dihydro-1H-isoindol-2-yl)piperidine-2,6-dione] | 7.8 | 30.0 |
|  | 18.7 |  | 7.59 | COC[C@@H]1CN(Cc2cc(F)c3nc(C45C6C7C4C4C5C6C74C(C)(C)O)ccc3c2)C[C@H]1Oc1ccc2c(c1)CN([C@H]1CCC(=O)NC1=O)C2=O (stereo partly drawn) [Example 121, (S)-3-(5-(((3S,4S)-1-((8-fluoro-2-(4-(2-hydroxypropan-2-yl)cuban-1-yl)quinolin-6-yl)methyl)-4-(methoxymethyl)pyrrolidin-3-yl)oxy)-1-oxoisoindolin-2-yl)piperidine-2,6-dione] | 7.5 | 13.2 |
| 2 | 22.0 | 8.70 | 7.64 | COC[C@@H]1CN(Cc2ccc3nc(C4CCN(C5CN(C)C5)CC4)ccc3c2)C[C@H]1Oc1ccc2c(c1)CN([C@H]1CCC(=O)NC1=O)C2=O [Example 122, (3S)-3-(5-{[(3S,4S)-4-(methoxymethyl)-1-({2-[1-(1-methylazetidin-3-yl)piperidin-4-yl]quinolin-6-yl}methyl)pyrrolidin-3-yl]oxy}-1-oxo-2,3-dihydro-1H-isoindol-2-yl)piperidine-2,6-dione] | 8.5 | 59.3 |
| 1 | 30.5 | 7.96 | 6.90 | COC[C@@H]1CN(Cc2ccc3nc(C4CCOCC4)ccc3n2)C[C@H]1Oc1ccc2c(c1)CN([C@H]1CCC(=O)NC1=O)C2=O [Example 128, (3S)-3-(5-{[(3S,4S)-4-(methoxymethyl)-1-{[6-(oxan-4-yl)-1,5-naphthyridin-2-yl]methyl}pyrrolidin-3-yl]oxy}-1-oxo-2,3-dihydro-1H-isoindol-2-yl)piperidine-2,6-dione] | 18.2 | 83.3 |
| 2 | 26.0 | 8.00 | 6.50 | COC[C@@H]1CN(Cc2cnc3nc(C4CCOCC4)ccc3c2)C[C@H]1Oc1ccc2c(c1)CN([C@H]1CCC(=O)NC1=O)C2=O [Example 129, (3S)-3-(5-{[(3S,4S)-4-(methoxymethyl)-1-{[7-(oxan-4-yl)-1,8-naphthyridin-3-yl]methyl}pyrrolidin-3-yl]oxy}-1-oxo-2,3-dihydro-1H-isoindol-2-yl)piperidine-2,6-dione] | 10.6 | 80.6 |
| 37 | 32.0 | 6.97 | 5.85 | COC[C@@H]1CN(Cc2cnc3nc(C4CCOCC4)ncc3c2)C[C@H]1Oc1ccc2c(c1)CN([C@H]1CCC(=O)NC1=O)C2=O [Example 134, (3S)-3-(5-{[(3S,4S)-4-(methoxymethyl)-1-{[2-(oxan-4-yl)pyrido[2,3-d]pyrimidin-6-yl]methyl}pyrrolidin-3-yl]oxy}-1-oxo-2,3-dihydro-1H-isoindol-2-yl)piperidine-2,6-dione] | 12.9 | 75.6 |
| 1 | 35.7 | 9.00 | 7.51 | COC[C@@H]1CN(Cc2cc3ccc(C4CCOCC4)nc3cn2)C[C@H]1Oc1ccc2c(c1)CN([C@H]1CCC(=O)NC1=O)C2=O [Example 135, (3S)-3-(5-{[(3S,4S)-4-(methoxymethyl)-1-{[2-(oxan-4-yl)-1,7-naphthyridin-6-yl]methyl}pyrrolidin-3-yl]oxy}-1-oxo-2,3-dihydro-1H-isoindol-2-yl)piperidine-2,6-dione] | 8.8 | 55.6 |
| 2 | 31.9 | 7.39 | 6.54 | COC[C@@H]1CN(Cc2ccc3nc(C4CCOCC4)cnc3c2)C[C@H]1Oc1ccc2c(c1)CN([C@H]1CCC(=O)NC1=O)C2=O [Example 136, (3S)-3-(5-{[(3S,4S)-4-(methoxymethyl)-1-{[2-(oxan-4-yl)quinoxalin-6-yl]methyl}pyrrolidin-3-yl]oxy}-1-oxo-2,3-dihydro-1H-isoindol-2-yl)piperidine-2,6-dione] | 26.6 | 91.8 |
| 2 | 20.2 | 8.30 | 6.88 | O=C1CC[C@H](N2Cc3cc(O[C@@H]4CN(Cc5cc(F)c6nc(C7CCOCC7)ccc6c5)C[C@H]4CO)ccc3C2=O)C(=O)N1 [Example 139, (3S)-3-(5-{[(3S,4S)-1-{[8-fluoro-2-(oxan-4-yl)quinolin-6-yl]methyl}-4-(hydroxymethyl)pyrrolidin-3-yl]oxy}-1-oxo-2,3-dihydro-1H-isoindol-2-yl)piperidine-2,6-dione] | 10.3 | 65.9 |
| 1 | 25.3 | 9.00 | 7.25 | O=C1CC[C@H](N2Cc3cc(O[C@@H]4CN(Cc5cc(F)c6ncc(N7CCOCC7)cc6c5)C[C@H]4COC(F)(F)F)ccc3C2=O)C(=O)N1 [Example 140, (3S)-3-(5-{[(3S,4S)-1-{[8-fluoro-3-(morpholin-4-yl)quinolin-6-yl]methyl}-4-[(trifluoromethoxy)methyl]pyrrolidin-3-yl]oxy}-1-oxo-2,3-dihydro-1H-isoindol-2-yl)piperidine-2,6-dione] | 8.3 | 24.8 |
| 1 | 26.5 | 9.00 | 7.36 | COC[C@@H]1CN(Cc2cc(F)c3nc(N4CCN(C5COC5)CC4)ncc3c2)C[C@H]1Oc1ccc2c(c1)CN([C@H]1CCC(=O)NC1=O)C2=O [Example 141, (3S)-3-(5-{[(3S,4S)-1-({8-fluoro-2-[4-(oxetan-3-yl)piperazin-1-yl]quinazolin-6-yl}methyl)-4-(methoxymethyl)pyrrolidin-3-yl]oxy}-1-oxo-2,3-dihydro-1H-isoindol-2-yl)piperidine-2,6-dione] | 11.4 | 31.7 |
|  | 19.9 | 9.00 | 7.62 | COC[C@@H]1CN(Cc2cc(F)c3nc(N4CCN(C5COC5)CC4)ccc3c2)C[C@H]1Oc1ccc2c(c1)CN([C@H]1CCC(=O)NC1=O)C2=O [Example 142, (3S)-3-(5-{[(3S,4S)-1-({8-fluoro-2-[4-(oxetan-3-yl)piperazin-1-yl]quinolin-6-yl}methyl)-4-(methoxymethyl)pyrrolidin-3-yl]oxy}-1-oxo-2,3-dihydro-1H-isoindol-2-yl)piperidine-2,6-dione] | 7.1 | 43.3 |
| 1 | 27.3 | 9.00 | 7.57 | COC[C@@H]1CN(Cc2cc(F)c3nc(C4CCN(C5COC5)CC4)ccc3c2)C[C@H]1Oc1ccc2c(c1)CN([C@H]1CCC(=O)NC1=O)C2=O [Example 143, (3S)-3-(5-{[(3S,4S)-1-({8-fluoro-2-[1-(oxetan-3-yl)piperidin-4-yl]quinolin-6-yl}methyl)-4-(methoxymethyl)pyrrolidin-3-yl]oxy}-1-oxo-2,3-dihydro-1H-isoindol-2-yl)piperidine-2,6-dione] | 8.9 | 35.5 |
